Earlier results in patent US20220184070A1, “LOW-DOSE TRIPLE COMBINATION FORMULATION” (The George Institute for Global Health, priority 2019, published 2022).
Marks after values point to notes of the source that are not given here.

System: plasma glucose

N[C@@H](CC(=O)N1CCn2c(nnc2C(F)(F)F)C1)Cc1cc(F)c(F)cc1F [Sitagliptin, sitagliptin]
Percentage change in plasma glucose from pre-prandial adjusted for placebo, at 2 h PPG (single dose 100 mg monotherapy, published studies): −6.3% | Difference in mean 2 h post-prandial glucose (PPG) vs placebo (single dose 100 mg, 180 min, FIG. 4): ~1 mmol/L | Maximum difference in plasma glucose between sitagliptin and placebo (single dose 100 mg, at 120 min post-dose (90 min post-meal), FIG. 4): 1.5 mmol/L | Percentage change in plasma glucose from pre-prandial adjusted for placebo, Maximum (single dose 100 mg, maximum achieved at 1.5 h post-prandial, published studies): −20.3^a % | Time at which maximum PPG and serum insulin were achieved (single dose 100 mg, post-dose (0.5 h post-meal), FIG. 4): ~1 h
